The structures appear in SMILES notation.

Data set [1] in a line: locomotive activity, photoelectric cell actimeter. In kind it is in vivo, mice (male CD1). Conditions: 32 mg/kg O.R.; untreated mice 553 ± 200; P <0.05 (Student test). The procedure:
The mice (male CD1 20-25 g) are placed in groups of three in the cages of a photoelectric cell actimeter. After 30 minutes of getting used to the enclosure, the animas are treated by oral route with the product under test in suspension in carboxymethylcellulose at 1%. A control set of untreated mice receive only the vehicle. Each set contains 12 groups of 3 mice. The movement activity responses are recorded for 80 minutes.

Data set [2] in a line: acute oral toxicity (LD 50). Conditions: mouse, in vivo, mice. The text has this:
The components of the invention benefit from a good tolerance and a weak toxicity. […] 1, in mice.

Data set [3] is described as follows: anticonvulsive activity, test with pentetrazol. It counts as in vivo, mice (male CD1). The settings on record: Mus musculus, 0.5 h; oral route, 30 minutes before pentetrazol 135 mg/kg s.c.; dose which avoids attacks in half of the animals; read-out: DE50 (the source's name). How it is done:
This activity has been studied by the test with pentetrazol, according to the method of EVERETT and RICHARDS (J. Pharm. Exp. Ther. 1944, 81, 402-407).
Thus the DE50 is determined, which is the dose which avoids the appearance of attacks in half of the animals. The DE 50 has been calculated by the method of D. K. Finney (Probit analysis; University Press; Cambridge; 1971).

Data set [4] is described as follows: antagonist activity vis a vis the hypnotic effects of benzodiazepines. The settings on record: 25 mg/kg i.p., 15 minutes before diazepam 6 mg/kg i.p.; control 97 ± 12; * P < 0.05 vs control.

`CCCNC(=O)c1cn(COC)c2ccccc2c1=O` [derivative no. 1, 1-methoxymethyl-4-oxo-1,4-dihydro-quinoline 3-(N-propyl)carboxamide]: in data set [1], the “Movement Activity for 80 min” value is on record as 1842 ± 470. Further, the LD50 – broadly, the dose expected to kill half of the subjects tested – in data set [2] stood at 1100 mg/kg. Further, in data set [3], the ED50 was 55 mg/kg. Further, in data set [4], the Length of sleep is 39 ± 20 min.
Consider `CCNC(=O)c1cn(COC)c2ccccc2c1=O` [derivative no. 3, 1-methoxymethyl-4-oxo-1,4-dihydro-quinoline 3-(N-ethyl)carboxamide], for which the Length of sleep in data set [4] came to 9 ± 4 min.
As to `COCn1cc(C(=O)NCC(C)C)c(=O)c2ccccc21` [derivative no. 5, 1-methoxymethyl-4-oxo-1,4-dihydro-quinoline 3-(N-isobutyl)carboxamide], in data set [3], the ED50 is 46 mg/kg. The Length of sleep in data set [4] worked out at 62 ± 10 min.
For `COCn1cc(C(=O)NC2CC2)c(=O)c2ccccc21` [derivative no. 7, 1-methoxymethyl-4-oxo-1,4-dihydro-quinoline 3-(N-cyclopropyl)carboxamide], in that order: 67 mg/kg and 32 ± 11 min.
On to `COCn1cc(C(=O)NC2CCCC2)c(=O)c2ccccc21` [derivative no. 8, 1-methoxymethyl-4-oxo-1,4-dihydro-quinoline 3-(N-cyclopentyl)carboxamide], for which the ED50 in data set [3] worked out at 108 mg/kg.
With `CCCNC(=O)c1cn(COC)c2ccc(F)cc2c1=O` [derivative no. 9, 1-methoxymethyl-4-oxo-6-fluoro-1,4-dihydro-quinoline 3-(N-propyl)carboxamide], the ED50 in data set [3] amounted to 62 mg/kg. Moreover, the Length of sleep in data set [4] came to 22 ± 8 min.
For the compound `CCCNC(=O)c1cn(COC)c2c(F)cccc2c1=O` [derivative no. 10, 1-methoxymethyl-4-oxo-8-fluoro-1,4-dihydro-quinoline 3-(N-propyl)carboxamide], the ED50 in data set [3] stood at 53 mg/kg.
With `CCCNC(=O)c1cn(COC)c2c(Cl)cccc2c1=O` [derivative no. 11, 1-methoxymethyl-4-oxo-8-chloro-1,4-dihydro-quinoline 3-(N-propyl)carboxamide], the ED50 in data set [3] turned out to be 21 mg/kg.
On to `CCCNC(=O)c1cn(COC)c2ccc(OC)cc2c1=O` [derivative no. 12, 1-methoxymethyl-4-oxo-6-methoxy-1,4-dihydro-quinoline 3-(N-propyl)carboxamide], for which, in data set [3], the ED50 was 65 mg/kg.
Still for that read-out and setting: with `CCCNC(=O)c1cn(COCC)c2ccccc2c1=O` [derivative no. 13, 1-ethoxymethyl-4-oxo-1,4-dihydro-quinoline 3-(N-propyl)carboxamide] the figure was 75 mg/kg; with `CCCNC(=O)c1cn(CCOCC)c2ccccc2c1=O` [derivative no. 14, 1-ethoxyethyl-4-oxo-1,4-dihydro-quinoline 3-(N-propyl)carboxamide], 79 mg/kg; with `CCCNC(=O)c1cn(CCOC)c2ccccc2c1=O` [derivative no. 15, 1-methoxyethyl-4-oxo-1,4-dihydro-quinoline 3-(N-propyl)carboxamide], 50 mg/kg.
Same read-out and setting: with `CCC1(c2ccccc2)C(=O)NC(=O)NC1=O` [phenobarbital, reference compound] the figure was 10 mg/kg; with `CCCC(CCC)C(=O)[O-].[Na+]` [sodium valproate, reference compound], 200 mg/kg.
